In brackets after ≈: the same amount, converted by molar mass.
Key:
A. baumannii CDC-0045 = test: microbe, parasite or virus in culture; assay type: cell-based; settings: Acinetobacter baumannii, CDC0045, read-out: MIC, A. baumannii CDC-0045
P. aeruginosa CDC-0054 = test: microbe, parasite or virus in culture; assay type: cell-based; settings: Pseudomonas aeruginosa, CDC0054, read-out: Minimum inhibitory concentration, P. aeruginosa CDC-0054
A. baumannii CDC-0033 = test: microbe, parasite or virus in culture; assay type: cell-based; settings: Acinetobacter baumannii, CDC0033, read-out: MIC, A. baumannii CDC-0033
A. baumannii CDC-0036 = test: microbe, parasite or virus in culture; assay type: cell-based; settings: Acinetobacter baumannii, CDC0036, read-out: MIC, A. baumannii CDC-0036
A. baumannii 1258916 = test: microbe, parasite or virus in culture; assay type: cell-based, Acinetobacter baumannii; settings: Acinetobacter baumannii, 1258916, read-out: MIC, A. baumannii 1258916
P. aeruginosa ATCC 35151 = test: microbe, parasite or virus in culture; assay type: cell-based; settings: Pseudomonas aeruginosa, ATCC35151, read-out: Minimum inhibitory concentration, P. aeruginosa ATCC 35151
[1] = test system: B. thailandensis ATCC 700388; test: microbe, parasite or virus in culture; assay type: cell-based; settings: Burkholderia thailandensis, ATCC700388, read-out: Minimum inhibitory concentration (MIC), B. thailandensis ATCC 700388
[2] = test system: B. humptydooensis ATCC BAA-2767; test: microbe, parasite or virus in culture; assay type: cell-based; settings: Burkholderia humptydooensis, ATCCBAA2767, read-out: Minimum inhibitory concentration (MIC), B. humptydooensis ATCC BAA-2767
[3] = target: T1, PBP3 from Acinetobacter baumannii (ATCC 19606) (Acinetobacter baumannii, UniProt A0ABX6CK25); test: Bocillin-FL fluorescence polarization competition binding, A. baumannii PBP3; settings: fluorescence polarization competition binding assay using Bocillin-FL; read-out: A. baumannii PBP3 Potency
T1 sequence (A0ABX6CK25 64-610): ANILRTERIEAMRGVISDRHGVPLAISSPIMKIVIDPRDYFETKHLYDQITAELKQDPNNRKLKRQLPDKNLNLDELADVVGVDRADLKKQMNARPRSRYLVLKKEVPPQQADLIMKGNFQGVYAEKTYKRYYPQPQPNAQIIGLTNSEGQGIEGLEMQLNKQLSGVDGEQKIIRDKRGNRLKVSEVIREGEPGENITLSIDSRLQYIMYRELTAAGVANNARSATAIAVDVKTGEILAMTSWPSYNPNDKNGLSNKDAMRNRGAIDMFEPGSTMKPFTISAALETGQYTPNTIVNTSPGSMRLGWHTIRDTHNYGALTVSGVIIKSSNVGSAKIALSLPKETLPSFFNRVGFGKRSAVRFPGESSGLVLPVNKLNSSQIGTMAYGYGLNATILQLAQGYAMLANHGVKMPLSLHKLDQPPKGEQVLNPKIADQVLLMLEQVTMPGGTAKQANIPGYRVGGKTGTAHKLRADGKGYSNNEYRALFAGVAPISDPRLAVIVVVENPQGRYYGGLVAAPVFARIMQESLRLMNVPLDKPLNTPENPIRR
From the text: (§1) To determine the ability of boronic acid-based test PBP inhibitors to bind Penicillin Binding Proteins (PBPs), Bocillin-FL (fluorescently-labeled penicillin V; ThermoFisher Scientific) was used in a fluorescence polarization (FP) competition binding assay to assess inhibitor binding to PBP3 from Escherichia coli (K-12), PBP3 from Pseudomonas aeruginosa (PAO1), PBP1a and PBP3 from Acinetobacter baumannii (ATCC 19606), and PBP2 from Neisseria gonorrhoeae (FA19). PBPs were cloned and purified as described previously (E. coli PBP3, King, D. T, et al., ACS Infectious Diseases 2015, 1, 175-184; P. aeruginosa PBP3, Han et. al., PNAS 2010, 107 (51), 22002-22007; A. baumannii PBPs, Penwell et. al., Antimicrob. Agents Chemother. 2015, 59 (3), 1680-1689; N. gonorrhoeae PBP2, Singh et. al., J. Biol. Chem. 2019, 294 (38), 14020-14032). To establish assay conditions for competition binding, enzyme titration/saturation binding experiments were initially performed. Bocillin-FL was prepared at 0.2 μM in a buffer comprised of 50 mM Hepes (pH 8.0), 300 mM NaCl and 10% (v/v) glycerol for reactions with E. coli, P. aeruginosa and N. gonorrhoeae PBPs, and 25 mM Tris (pH 8.0), 200 mM NaCl, 10% (v/v) glycerol and 0.005% (v/v) Tween 20 for reactions with A. baumannii PBPs. Saturation binding was performed by mixing 40 μl of PBP solutions ranging in concentrations from 0-24 μM with 40 μl of the 0.2 μM Bocillin-FL solution, in individual wells of a black 384-well microplate. FP was measured immediately upon mixing (Excitation, 490 nm; Emission, 520 nm; g-factor, 0.96), using a Cytation3 (BioTek) microplate reader and measured continuously for up to 120 minutes. The FP response stabilized after 15 minutes for P. aeruginosa and A. baumannii PBP3, 30 minutes for E. coli PBP3 and A. baumannii PBP1a, and less than 1 minute for N. gonorrhoeae PBP2. […] The competition binding assay (80 μl final volume) was validated using beta-lactams and PBPs at final concentrations of: 1.5 μM for E. coli PBP3; 0.75 μM for P. aeruginosa PBP3; 1 μM for A. baumannii PBP1a; 0.2 μM for A. baumannii PBP3; and 0.25 μM for N. gonorrhoeae PBP2. Bocillin-FL was at 0.1 μM (0.05 μM with A. baumannii PBP1a) and beta-lactam concentrations ranged from 0-1,000 μM. E. coli PBP3 was incubated with increasing concentrations of ampicillin in a black 384-well microplate (Corning) for 30 minutes. P. aeruginosa PBP3 was incubated for 15 minutes with aztreonam, whereas A. baumannii PBP1a and PBP3 were incubated for 15 minutes with meropenem, and then Bocillin-FL was added followed immediately by the FP measurement for up to 60 minutes. […] The beta-lactam potency was reported as the concentration of beta-lactam required to reduce the amount of PBP bound-Bocillin-FL by 50% (EC50). […] The EC50 of aztreonam was determined to be <0.5 μM for P. aeruginosa PBP3. […] Binding assays for boronic acid PBP inhibitors were performed in an identical fashion for the respective PBPs.

[4] = target: T2, PBP3 from Pseudomonas aeruginosa (PAO1) (Pseudomonas aeruginosa, UniProt G3XD46); test: Bocillin-FL fluorescence polarization competition binding, P. aeruginosa PBP3; settings: for IC50: Binding affinity to P. aeruginosa PBP3, fluorescence polarization competition binding assay using Bocillin-FL, read-out: P. aeruginosa PBP3 Potency
T2 construct: made in house
T2 sequence (G3XD46 whole entry): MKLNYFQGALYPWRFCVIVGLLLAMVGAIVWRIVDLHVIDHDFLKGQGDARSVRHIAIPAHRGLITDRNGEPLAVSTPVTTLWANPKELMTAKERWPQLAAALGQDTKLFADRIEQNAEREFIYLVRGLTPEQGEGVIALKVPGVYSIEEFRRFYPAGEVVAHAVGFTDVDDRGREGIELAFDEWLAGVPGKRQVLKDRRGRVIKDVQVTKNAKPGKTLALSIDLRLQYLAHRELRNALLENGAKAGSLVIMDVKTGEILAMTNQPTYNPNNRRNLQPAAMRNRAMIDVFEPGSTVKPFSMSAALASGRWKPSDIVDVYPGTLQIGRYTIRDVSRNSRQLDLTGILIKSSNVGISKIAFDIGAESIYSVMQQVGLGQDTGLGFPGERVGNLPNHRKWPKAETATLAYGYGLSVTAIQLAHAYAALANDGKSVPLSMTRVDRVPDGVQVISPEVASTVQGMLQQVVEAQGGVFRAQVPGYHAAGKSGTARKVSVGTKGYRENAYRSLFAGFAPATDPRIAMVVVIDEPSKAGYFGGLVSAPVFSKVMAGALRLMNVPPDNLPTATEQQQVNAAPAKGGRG
From the text: as §1

[5] = test system: P. aeruginosa (ΔmexAB-oprM); test: Broth microdilution MIC in iron-depleted CAMHB (IDM); assay type: cell-based; settings: Pseudomonas aeruginosa; iron-depleted CAMHB (IDM); […]; read-out: Minimum inhibitory concentration, P. aeruginosa ΔmexAB-oprM
P. aeruginosa CDC-0090 = test: microbe, parasite or virus in culture; assay type: cell-based; settings: Pseudomonas aeruginosa, CDC0090, read-out: Minimum inhibitory concentration, P. aeruginosa CDC-0090
P. aeruginosa ATCC 27853 = test: microbe, parasite or virus in culture; assay type: cell-based; settings: Pseudomonas aeruginosa, ATCC27853, read-out: Minimum inhibitory concentration, P. aeruginosa ATCC 27853
A. baumannii ATCC 17978 = test: microbe, parasite or virus in culture; assay type: cell-based; settings: Acinetobacter baumannii, ATCC17978, read-out: MIC, A. baumannii ATCC 17978
A. baumannii ATCC 19606 = test: microbe, parasite or virus in culture; assay type: cell-based; settings: Acinetobacter baumannii, ATCC19606, read-out: MIC, A. baumannii ATCC 19606
P. aeruginosa CDC-0110 = test: microbe, parasite or virus in culture; assay type: cell-based; settings: Pseudomonas aeruginosa, CDC0110, read-out: Minimum inhibitory concentration, P. aeruginosa CDC-0110
P. aeruginosa CDC-0095 = test: microbe, parasite or virus in culture; assay type: cell-based; settings: Pseudomonas aeruginosa, CDC0095, read-out: Minimum inhibitory concentration, P. aeruginosa CDC-0095

In the case of `O=C(O)c1c(F)ccc2c1OB(O)[C@@H](NC(=O)[C@@H](NC(=O)N1CCN(Cc3ccc(O)c(O)c3Cl)C(=O)C1=O)c1cccc(P(=O)(O)O)c1)C2` (single isomer, unassigned) [Example 162], the MIC (A. baumannii CDC-0045) is reported as greater than 128 µg/mL, the MIC (P. aeruginosa CDC-0054) is reported as 2 to 4 µg/mL (≈ 2.72 to 5.44 µM) and the MIC (A. baumannii CDC-0033) is reported as greater than 128 µg/mL. It also gave an MIC (A. baumannii CDC-0036) greater than 128 µg/mL, an MIC (A. baumannii 1258916) of 32 to 64 µg/mL (≈ 43.6 to 87.1 µM) and an MIC (P. aeruginosa ATCC 35151) of less than 1 µg/mL. The MIC [1] was 8 to 16 µg/mL (≈ 10.9 to 21.8 µM), the MIC [2] was less than 1 µg/mL and the IC50 [3] was less than 10 µM. The IC50 [4] was 10 to 50 µM, the MIC [5] was 2 to 4 µg/mL (≈ 2.72 to 5.44 µM) and the MIC (P. aeruginosa CDC-0090) was 2 to 4 µg/mL (≈ 2.72 to 5.44 µM). For the same compound, the MIC (P. aeruginosa ATCC 27853) was 2 to 4 µg/mL (≈ 2.72 to 5.44 µM), the MIC (A. baumannii ATCC 17978) was less than 1 µg/mL and the MIC (A. baumannii ATCC 19606) was less than 1 µg/mL. It also gave an MIC (P. aeruginosa CDC-0110) of 2 to 4 µg/mL (≈ 2.72 to 5.44 µM) and an MIC (P. aeruginosa CDC-0095) of 8 to 16 µg/mL (≈ 10.9 to 21.8 µM).
With `O=C(O)c1c(F)ccc2c1OB(O)[C@@H](NC(=O)[C@@H](NC(=O)N1CCN(Cc3ccc(O)c(O)c3Cl)C(=O)C1=O)c1ccc(P(=O)(O)O)c(F)c1F)C2` [Example 165, (R)-3-((S)-2-(4-(2-chloro-3,4-dihydroxybenzyl)-2,3-dioxopiperazine-1-carboxamido)-2-(2,3-difluoro-4-phosphonophenyl)acetamido)-7-fluoro-2-hydroxy-3,4-dihydro-2H-benzo[e][1,2]oxaborinine-8-carboxylic acid] the MIC (A. baumannii CDC-0045) was less than 1 µg/mL, the MIC (P. aeruginosa CDC-0054) was less than 1 µg/mL and the MIC (A. baumannii CDC-0033) was 32 to 64 µg/mL (≈ 41.5 to 83 µM). For the same compound, the MIC (A. baumannii CDC-0036) was greater than 128 µg/mL, the MIC (A. baumannii 1258916) was 2 to 4 µg/mL (≈ 2.59 to 5.19 µM) and the MIC (P. aeruginosa ATCC 35151) was less than 1 µg/mL. The MIC [1] was less than 1 µg/mL, the MIC [2] was less than 1 µg/mL and the IC50 [3] was less than 10 µM. It also gave an IC50 [4] of 10 to 50 µM, an MIC [5] of 2 to 4 µg/mL (≈ 2.59 to 5.19 µM) and an MIC (P. aeruginosa CDC-0090) of 2 to 4 µg/mL (≈ 2.59 to 5.19 µM). For the same compound, the MIC (P. aeruginosa ATCC 27853) was 2 to 4 µg/mL (≈ 2.59 to 5.19 µM), the MIC (A. baumannii ATCC 17978) was less than 1 µg/mL and the MIC (A. baumannii ATCC 19606) was less than 1 µg/mL. The MIC (P. aeruginosa CDC-0110) was less than 1 µg/mL and the MIC (P. aeruginosa CDC-0095) was less than 1 µg/mL.
`O=C(O)c1c(F)ccc2c1OB(O)[C@@H](NC(=O)C(NC(=O)N1CCN(C3CCN(C(=O)c4cncc(O)c4)CC3)C1=O)c1cc(F)c(O)c(O)c1Cl)C2` (stereo partly drawn) [Example 464, (3R)-3-(2-(2-chloro-5-fluoro-3,4-dihydroxyphenyl)-2-(3-(1-(5-hydroxynicotinoyl)piperidin-4-yl)-2-oxoimidazolidine-1-carboxamido)acetamido)-7-fluoro-2-hydroxy-3,4-dihydro-2H-benzo[e][1,2]oxaborinine-8-carboxylic acid] showed an IC50 [3] of less than 10 µM and an IC50 [4] of less than 10 µM.
`O=C(O)c1c(F)ccc2c1OB(O)[C@@H](NC(=O)C(NC(=O)N1CCN(C3CCN(C(=O)c4cc[nH]c(=O)c4)CC3)C1=O)c1cc(F)c(O)c(O)c1Cl)C2` (stereo partly drawn) [Example 465, (3R)-3-(2-(2-chloro-5-fluoro-3,4-dihydroxyphenyl)-2-(2-oxo-3-(1-(2-oxo-1,2-dihydropyridine-4-carbonyl)piperidin-4-yl)imidazolidine-1-carboxamido)acetamido)-7-fluoro-2-hydroxy-3,4-dihydro-2H-benzo[e][1,2]oxaborinine-8-carboxylic acid] was tested, and the IC50 [3] was less than 10 µM and the IC50 [4] was less than 10 µM.
With `O=C(O)c1c(F)ccc2c1OB(O)[C@@H](NC(=O)C(NC(=O)N1CCN(C3CCN(C(=O)c4ccc5[nH]nnc5c4)CC3)C1=O)c1cc(F)c(O)c(O)c1Cl)C2` (stereo partly drawn) [Example 469, (3R)-3-(2-(3-(1-(1H-benzo[d][1,2,3]triazole-5-carbonyl)piperidin-4-yl)-2-oxoimidazolidine-1-carboxamido)-2-(2-chloro-5-fluoro-3,4-dihydroxyphenyl)acetamido)-7-fluoro-2-hydroxy-3,4-dihydro-2H-benzo[e][1,2]oxaborinine-8-carboxylic acid] the IC50 [3] was less than 10 µM.
With `C[C@H]1[C@H](NC(=O)/C(=N\OC(C)(C)C(=O)O)c2csc(N)n2)C(=O)N1S(=O)(=O)O` [aztreonam, reference compound] the EC50 ([4]; beta-lactam validation of FP competition assay, 15 minutes preincubation) was less than 500 nM.

Source: patent US20240270762A1, “PENICILLIN-BINDING PROTEIN INHIBITORS” (priority 2021, published 2024)
